Results as given in patent US11452718B2 (AVALYN PHARMA INC., priority 2012, dated 2022).
Where two headings read alike, the source gives them in different places.

Key:
[1] = 85% saturation pirfenidone formulations exposed to several temperatures (re-crystallization); type: physicochemical; settings: overnight
From the text: However, in all cases pirfenidone eventually re-crystallized. This re-crystallization was not inhibited by pre-filtration of the sample.

[2] = Aqueous formulation observations: solubility, salt addition, taste, dissolution time; type: physicochemical
Procedure: However, at this (and lower) concentration it was determined that salt addition was required to improve acute tolerability upon inhalation of a nebulized solution (otherwise a hypotonic solution). To address tonicity, NaCl or MgCl2 were added. […] This effect was not observed at ˜pH 8.

CYP1A2 = biological target: T1, CYP1A2 (Homo sapiens, UniProt P05177); settings: hepatic microsomes; cited from earlier work
T1 construct: In vitro metabolism studies with hepatic microsomes; from tissue; host or cells: hepatic microsomes

[3] = Extended-duration intratracheal and oral pharmacokinetic study; type: in vivo, Wistar rats
Procedure: Previous intratracheal aerosol delivery (see Example 6) was performed as a single bolus instillation just above the first bifurcation of the lung. For in vivo efficacy studies, an attempt was made to mimic tidal inhaled breathing by splitting the dose into equal parts and administering as before, but over a 2 minute period. […] Doses were prepared in 0.45% sodium chloride solution and were administered as described in Table 21.
Plasma samples and entire lungs were taken at pre-dose, 2, 4, 6, 10, 30, 60 and 120 minutes post dosing. Materials were extracted and pirfenidone quantitated as mcg/mL plasma and μg/gram lung tissue.

[4] = cited from earlier work
[5] = Bleomycin model of pulmonary fibrosis: right lung hydroxyproline content, left lung fibrosis score; type: in vivo, Wistar rats; settings: Wistar, rat, plasma, read-out: Plasma AUCO-2 hrs
Procedure: (§1) To compare anti-fibrotic efficacy between extended-duration intratracheal, direct-lung aerosol administration and oral gavage, the bleomycin model of pulmonary fibrosis was performed. Doses for this study were selected based upon pharmacokinetic parameters obtained in Table 22 (from Example 8). Briefly, Wistar rats (175-225 grams) were administered bleomycin by the intratracheal route using a Penn Century MicroSprayer® catheter. On the seventh day following bleomycin exposure, animals initiated treatment with either saline or pirfenidone. Animals were dosed once a day on days 7 through 28, and euthanized on day 29. Pirfenidone was administered either intratracheally using Penn Century MicroSprayer catheter or by oral gavage. Sham and bleomycin control groups received either no treatment or intratracheal saline by Penn Century MicroSprayer catheter. While dosing more frequently (or less frequently) may improve the observed effects, anesthesia required for intratracheal administration reduced animal weight gain (reduced food intake) and, thus limited dosing to once a day for this study. Because anesthesia reduced weight gain, all study animals (intratracheal, oral and control) received once-a-day isoflurane using the same technique and duration. Twelve animals were enrolled into each dosing group. […] Oral gavage was administered in a single 300 mcL volume. Due to technical restrictions, instead of the mg/kg dose being equally split between six 50 mcL administrations over 2 minutes, intratracheal administration was performed with three equal 50 mcL volumes administered every 40 seconds over the same period. For dose selection, data from Table 22 was extrapolated. On day 29, animals were euthanized. Right lungs were extracted and measured for hydroxyproline content, while left lungs were subjected to histology. Histological sections were stained with picrosirius red and scored for lung tissue fibrosis. Twenty random photographs of each stained lung tissue section were taken, blinded and scored by an independent review panel. Observations were pooled for analysis. […] Doses selected for this study targeted critical pharmacokinetic parameters from the comparator oral route (matching lung tissue Cmax or plasma AUC). These targets were selected from a pharmacokinetic study wherein lung tissue and plasma were collected and pirfenidone levels were compared. In these studies, lung tissue Cmax following intratracheal administration was always the first collected time point. It is important to consider that the duration of time required to collect this first lung tissue may not accurately capture the true lung Cmax. […] It was this pharmacokinetic point that the above Cmax for dosing was selected. If it was possible to collect lung tissue earlier, the Cmax may be higher. As the Penn Century MicroSprayer catheter delivers nearly the entire loaded dose, the possible delivered Cmax in these studies may be higher. […] In this study, we divided the dose into thirds.

[6] = test system: bleomycin model of pulmonary fibrosis; experiment: as above; type: in vivo, Wistar rats; settings: for Average Hydroxyproline, difference from bleomycin control: sham-subtracted
Procedure: as §1

[7] = Rubino et al., cited from earlier work
[8] = intratracheal aerosol 2.5 mg/kg, extended-duration (2 minutes)
[9] = intratracheal aerosol 5 mg/kg, extended-duration (2 minutes)
[10] = intratracheal aerosol 10 mg/kg, extended-duration (2 minutes)

T1 sequence (P05177 whole entry): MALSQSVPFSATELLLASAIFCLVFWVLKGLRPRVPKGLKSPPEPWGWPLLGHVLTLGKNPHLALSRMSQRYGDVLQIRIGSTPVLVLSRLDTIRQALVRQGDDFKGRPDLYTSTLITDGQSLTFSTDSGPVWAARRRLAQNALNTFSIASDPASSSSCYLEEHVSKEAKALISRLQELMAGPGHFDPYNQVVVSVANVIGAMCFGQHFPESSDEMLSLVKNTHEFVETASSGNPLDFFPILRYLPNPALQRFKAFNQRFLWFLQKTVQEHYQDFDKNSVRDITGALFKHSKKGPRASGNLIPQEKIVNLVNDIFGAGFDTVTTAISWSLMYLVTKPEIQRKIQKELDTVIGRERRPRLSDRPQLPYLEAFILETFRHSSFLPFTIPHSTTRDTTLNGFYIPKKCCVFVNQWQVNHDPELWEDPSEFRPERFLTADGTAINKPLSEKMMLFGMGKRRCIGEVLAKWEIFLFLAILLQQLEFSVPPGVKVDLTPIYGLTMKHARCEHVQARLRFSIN

Cc1ccc(=O)n(-c2ccccc2)c1 [pirfenidone, 5-methyl-1-phenyl-2-(1H)-pyridone]
Recrystallization upon storage ([1]; 4° C., pirfenidone 23.0 mg/mL (85% saturation), 4% EtOH, 8% PG, 88% phosphate buffer (5 mM), pH 6.6): No | Recrystallization upon storage ([1]; 4° C., pirfenidone 29.5 mg/mL, 6% EtOH, 12% PG, 82% phosphate buffer (5 mM), pH 7.0): No | Recrystallization upon storage ([1]; 4° C., pirfenidone […], 8% EtOH, 16% PG, 76% phosphate buffer (5 mM), pH 7.0): No | Recrystallization upon storage ([1]; 15° C., pirfenidone 23.0 mg/mL (85% saturation), 4% EtOH, 8% PG, 88% phosphate buffer (5 mM), pH 6.6): No | Recrystallization upon storage ([1]; 15° C., pirfenidone 29.5 mg/mL, 6% EtOH, 12% PG, 82% phosphate buffer (5 mM), pH 7.0): No | Recrystallization upon storage ([1]; 15° C., pirfenidone […], 8% EtOH, 16% PG, 76% phosphate buffer (5 mM), pH 7.0): No | Recrystallization upon storage ([1]; 25° C., pirfenidone 23.0 mg/mL (85% saturation), 4% EtOH, 8% PG, 88% phosphate buffer (5 mM), pH 6.6): No | Recrystallization upon storage ([1]; 25° C., pirfenidone 27.2 mg/mL (saturation solubility), 4% EtOH, 8% PG, 88% phosphate buffer (5 mM), pH 6.6): Yes | Recrystallization upon storage ([1]; 25° C., pirfenidone 29.5 mg/mL, 6% EtOH, 12% PG, 82% phosphate buffer (5 mM), pH 7.0): No | Recrystallization upon storage ([1]; 25° C., pirfenidone 34.7 mg/mL, 6% EtOH, 12% PG, 82% phosphate buffer (5 mM), pH 7.0): Yes | Recrystallization upon storage ([1]; 25° C., pirfenidone 43.7 mg/mL, 8% EtOH, 16% PG, 76% phosphate buffer (5 mM), pH 7.0): Yes | Recrystallization upon storage ([1]; 25° C., pirfenidone […], 8% EtOH, 16% PG, 76% phosphate buffer (5 mM), pH 7.0): No | Recrystallization upon storage ([1]; −20° C., pirfenidone 23.0 mg/mL (85% saturation), 4% EtOH, 8% PG, 88% phosphate buffer (5 mM), pH 6.6, crystals re-dissolved at 25° C. without agitation): Yes^f | Recrystallization upon storage ([1]; −20° C., pirfenidone 29.5 mg/mL, 6% EtOH, 12% PG, 82% phosphate buffer (5 mM), pH 7.0, crystals re-dissolved at 25° C. without agitation): Yes^f | Recrystallization upon storage ([1]; −20° C., pirfenidone […], 8% EtOH, 16% PG, 76% phosphate buffer (5 mM), pH 7.0, crystals re-dissolved at 25° C. without agitation): Yes^f | formulation stability on addition of MgCl2 ([2]; MgCl2 added, 1:1 and 1:2 mole ratios magnesium to pirfenidone): maintained a stable, soluble solution | formulation stability on addition of NaCl ([2]; NaCl added to address tonicity, ambient storage): destabilized the formulation and resulted in precipitation upon ambient storage | acute tolerability upon inhalation of a nebulized solution ([2]; addition of NaCl): improved acute tolerability | solubility ([2]; aqueous solution, aqueous buffer, across a pH range of about 4.0 to about 8.0): 17 mg/mL | share of pirfenidone metabolised via the enzyme (CYP1A2): approximately 48% | adverse events ([3]; extended-duration intratracheal aerosol or oral gavage): No adverse events were noted | Lung Tissue AUC(0-2 hr) [3, 8]: 3.5 µg·h/g | Lung Tissue Cmax [3, 8]: 14.4 μg/gram | Lung Tissue AUC(0-2 hr) [3, 9]: 6.6 µg·h/g | Lung Tissue Cmax [3, 9]: 27.9 μg/gram | Lung Tissue AUC(0-2 hr) [3, 10]: 14.5 µg·h/g | Lung Tissue Cmax [3, 10]: 61.1 μg/gram | Lung Tissue AUC(0-2 hr) ([3]; oral gavage 10 mg/kg): 4.9 µg·h/g | Lung Tissue Cmax ([3]; oral gavage 10 mg/kg): 3.5 μg/gram | Lung Tissue AUC(0-2 hr) ([3]; oral gavage 30 mg/kg): 13.5 µg·h/g | Lung Tissue Cmax ([3]; oral gavage 30 mg/kg): 9.8 μg/gram | Lung Tissue AUC(0-2 hr) ([3]; oral gavage 100 mg/kg): 27.9 µg·h/g | Lung Tissue Cmax ([3]; oral gavage 100 mg/kg): 33.6 μg/gram | Lung Cmax ([4]; 40 mg/kg intravenous dose): 30 mcg/gram wet tissue | plasma Cmax ([4]; 40 mg/kg intravenous dose): about 55 mcg/mL | wet lung half-life, longer than the plasma half-life ([4]; intravenous): about 45% | AUC ([5]; inhaled or intranasal, Bleomycin + IT 0.9 mg/kg): 3000 ng·h/mL | AUC ([5]; inhaled or intranasal, Bleomycin + IT 3.0 mg/kg): 7700 ng·h/mL | AUC ([5]; inhaled or intranasal, Bleomycin + IT 6.4 mg/kg): 16500 ng·h/mL | AUC ([5]; Bleomycin + PO 30 mg/kg): 16600 ng·h/mL | AUC ([5]; Bleomycin + PO 100 mg/kg): 29600 ng·h/mL | possible lung tissue Cmax ([6]; 0.9 mg/kg intratracheal dose divided into thirds): about 50 mcg/gram lung tissue | possible lung tissue Cmax ([6]; 0.9 mg/kg intratracheal dose to a 250 gram rat, lung about 1.5 grams, whole dose): ≤ 150 mcg/gram | anti-fibrotic efficacy ([6]; 3.0 mg/kg intratracheal, direct lung aerosol rat dose): no observed pirfenidone efficacy | Lung Tissue AUC0-2 hrs ([6]; Bleomycin + IT 0.9 mg/kg): 2.6 µg·h/g | Lung Tissue Cmax ([6]; Bleomycin + IT 0.9 mg/kg): 11.6 µg/g | Average Hydroxyproline, difference from bleomycin control ([6]; Bleomycin + IT 0.9 mg/kg): −0.70*, **** mg/rightlung | Lung Tissue AUC0-2 hrs ([6]; Bleomycin + IT 3.0 mg/kg): 7.3 µg·h/g | Lung Tissue Cmax ([6]; Bleomycin + IT 3.0 mg/kg): 33.5 µg/g | Average Hydroxyproline, difference from bleomycin control ([6]; Bleomycin + IT 3.0 mg/kg): −0.02**, **** mg/rightlung | Lung Tissue AUC0-2 hrs ([6]; Bleomycin + IT 6.4 mg/kg): 15.5 µg·h/g | Lung Tissue Cmax ([6]; Bleomycin + IT 6.4 mg/kg): 71.5 µg/g | Average Hydroxyproline, right lung ([6]; Bleomycin + IT 6.4 mg/kg once a day, days 7 through 28): 3.50 mg/right lung | Average Hydroxyproline, difference from bleomycin control ([6]; Bleomycin + IT 6.4 mg/kg): −0.08***, **** mg/rightlung | Lung Tissue AUC0-2 hrs ([6]; Bleomycin + PO 30 mg/kg): 18.2 µg·h/g | Lung Tissue Cmax ([6]; Bleomycin + PO 30 mg/kg): 11.8 µg/g | Lung Tissue AUC0-2 hrs ([6]; Bleomycin + PO 100 mg/kg): 34.4 µg·h/g | Lung Tissue Cmax ([6]; Bleomycin + PO 100 mg/kg): 33.6 µg/g | anti-fibrotic efficacy, direct lung delivery versus oral ([6]; intratracheal aerosol versus oral gavage): more efficacious (less fibrosis and less hydroxyproline) | T1/2 beta ([7]; lung tissue (derived solely from plasma T1/2), aerosol 110 mg RDD, 2009 fasted-state): 2.5 h | T1/2 beta ([7]; lung tissue (derived solely from plasma T1/2), aerosol 154 mg RDD, 2009 fasted-state): 2.5 h | T1/2 beta ([7]; lung tissue (derived solely from plasma T1/2), aerosol 185 mg RDD, 2009 fasted-state): 2.5 h | T1/2 beta ([7]; lung tissue (derived solely from plasma T1/2), oral 801 mg, fasted-state, 2009): 2.5 h | T1/2 beta ([7]; lung tissue (derived solely from plasma T1/2), oral 801 mg, fed-state, 2009): 2.4 h | T1/2 beta ([7]; plasma, aerosol 110 mg RDD, 2009 fasted-state): 2.5 h | T1/2 beta ([7]; plasma, aerosol 154 mg RDD, 2009 fasted-state): 2.5 h | T1/2 beta ([7]; plasma, aerosol 185 mg RDD, 2009 fasted-state): 2.5 h | T1/2 beta ([7]; plasma, oral 801 mg, fasted-state, 2009): 2.5 h | T1/2 beta ([7]; plasma, oral 801 mg, fed-state, 2009): 2.4 h
